Here are results for nine molecules from article PMC12356528, “Modular Synthetic Platform for the Elaboration of Fragments in Three Dimensions for Fragment-Based Drug Discovery” (Journal of the American Chemical Society, 2025).

Data set [1] is described as follows: DMPK Wave1: aqueous solubility. In kind it is physicochemical.
Data set [2] can be described thus: DMPK Wave1: lipophilicity (measured logD). Format: physicochemical.
Data set [3] is described as follows: DMPK Wave1: metabolic stability in rat hepatocytes. As to conditions: rat hepatocytes (RH). Format: in vitro ADME.
Data set [4] in a line: DMPK Wave1: metabolic stability in human liver microsomes. Format: in vitro ADME. As to conditions: human liver microsomes (HLM). In general terms: Liver microsomes are vesicles of endoplasmic reticulum, rich in cytochrome P450 enzymes.

The structures appear in SMILES notation. Values after ≈ are worked out from the molar mass of the structure shown. Where two headings read alike, the source gives them in different places.

A word on the solubility: it is how much of the substance goes into solution per volume. Higher therefore signals a readily soluble substance. The logD is lipophilicity at a set pH, counting ionised and neutral species. Low readings indicate lower lipophilicity, high ones higher lipophilicity. In data set [1], `Cc1noc(C)c1S(=O)(=O)N1CCC2(CC1)CC2c1cnc2[nH]ccc2c1` (stereo not drawn) [Compound 78] came in with a solubility of 49 µM (≈ 18.9 µg/mL). Also, the logD in data set [2] stood at 3.6. Moreover, the “metabolic stability (in words)” value in data set [3] and in data set [4] was “lower metabolic stability” throughout.

In data set [1], `COc1cc([C@H]2[C@@H]3CN(C(=O)Cc4c[nH]c5ccccc45)CC[C@@H]32)ccn1` [Compound 81] came in with a solubility of 100 µM (≈ 36.1 µg/mL). In data set [2], this molecule displayed a logD of 3.1. In addition, the “metabolic stability (in words)” value in data set [3] and in data set [4] was “lower metabolic stability” throughout.

In data set [1], `c1ncc(C2CC23CCN(c2ccc4c(c2)OCO4)CC3)cn1` (stereo not drawn) [Compound 82] displayed a solubility of 887 µM (≈ 274 µg/mL). In addition, the logD in data set [2] amounted to 0.1. For the same molecule, the “metabolic stability (in words)” value in data set [3] and in data set [4] was “good metabolic stability” in each case.

`CS(=O)(=O)N1CCC2CC21c1cncnc1` (stereo not drawn) [Compound 86] displayed a solubility in data set [1] of 881 µM (≈ 211 µg/mL). The molecule further gave a logD in data set [2] of -0.4.

For `CS(=O)(=O)N1CCC2(CC1)CC2c1cncnc1` (stereo not drawn) [Compound 87], in data set [1], the concentration in solution (solubility) came to 931 µM (≈ 249 µg/mL). In data set [2], this molecule registered a logD of 0.2.

Take `CS(=O)(=O)N1CC2(CC2c2cncnc2)C1` (stereo not drawn) [Compound 88]: the concentration in solution in data set [1] (solubility) came to 913 µM (≈ 218 µg/mL). In addition, in data set [2], the logD is -0.6.

In data set [1], `CS(=O)(=O)N1C2CCC1CC1(C2)CC1c1cncnc1` (stereo not drawn) [Compound 91] displayed a solubility of more than 981 µM. For the same molecule, the logD in data set [2] was found to be 0.5.

Consider `CS(=O)(=O)N1CCC[C@@H]2[C@@H](c3cncnc3)[C@@H]21` [Compound 94], for which the solubility in data set [1] (aqueous) was 823 µM (≈ 208 µg/mL). The molecule also displayed a logD in data set [2] of 0.1.

In data set [1] (aqueous), `C=CC(=O)N1C[C@H](Nc2ncnc3[nH]ccc23)CC[C@@H]1C` [Ritlecitinib, 1-((2S,5R)-5-((7H-Pyrrolo[2,3-d]pyrimidin-4-yl)amino)-2-methylpiperidin-1-yl)prop-2-en-1-one, reference compound] registered a solubility of 996 µM (≈ 284 µg/mL). This molecule also showed a logD in data set [2] of 1.6.
